Experimental data published in ChEMBL document CHEMBL1150313, “Novel bis-(arylsulfonamide) hydroxamate-based selective MMP inhibitors” (Bioorg Med Chem Lett, 2008).
Active and inactive are the calls of the source. The rule behind the calls is not given here.

Columns and labels:
[1] = target: T1, Matrilysin (Homo sapiens) (UniProt P09237); assay: Inhibition of human recombinant MMP7 at 10 uM
T1 sequence (whole entry): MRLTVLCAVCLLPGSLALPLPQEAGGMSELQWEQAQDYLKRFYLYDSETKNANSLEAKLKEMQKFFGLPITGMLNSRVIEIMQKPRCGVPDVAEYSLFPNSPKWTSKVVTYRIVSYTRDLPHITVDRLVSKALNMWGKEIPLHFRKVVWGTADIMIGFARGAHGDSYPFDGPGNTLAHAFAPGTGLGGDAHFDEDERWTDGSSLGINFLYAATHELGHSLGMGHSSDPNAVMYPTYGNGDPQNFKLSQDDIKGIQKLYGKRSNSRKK

[2] = target: T2, Matrix metalloproteinase-9 (Homo sapiens, UniProt P14780); assay: Inhibition of human recombinant MMP9
Stromelysin-2 [3] = target: T3, Stromelysin-2 (Homo sapiens, UniProt P09238); assay: Inhibition of human recombinant MMP10 at 10 uM
Target sequence in this assay (P09238 99-476 limits assumed): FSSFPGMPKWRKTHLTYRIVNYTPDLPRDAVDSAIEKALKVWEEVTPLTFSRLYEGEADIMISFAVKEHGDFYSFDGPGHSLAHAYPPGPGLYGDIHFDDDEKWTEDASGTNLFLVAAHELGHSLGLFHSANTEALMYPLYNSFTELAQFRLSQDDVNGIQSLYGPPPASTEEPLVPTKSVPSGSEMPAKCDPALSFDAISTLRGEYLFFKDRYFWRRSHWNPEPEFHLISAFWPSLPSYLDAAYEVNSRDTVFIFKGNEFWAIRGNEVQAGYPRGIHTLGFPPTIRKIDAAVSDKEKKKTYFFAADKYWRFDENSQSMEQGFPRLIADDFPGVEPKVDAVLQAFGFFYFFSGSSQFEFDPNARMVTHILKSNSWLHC

Matrilysin = target: T4, Matrilysin (Homo sapiens, UniProt P09237); assay: (§1) Inhibition of human recombinant MMP7
T4 sequence (P09237 whole entry): T1 sequence (whole entry)

Stromelysin-2 [4] = target: T3, Stromelysin-2; assay: Inhibition of human recombinant MMP10
[5] = target: T2, Matrix metalloproteinase-9; assay: Inhibition of human recombinant MMP9 at 10 uM
[6] = target: T1, Matrilysin (Homo sapiens); assay: as §1

T2 sequence (P14780 whole entry): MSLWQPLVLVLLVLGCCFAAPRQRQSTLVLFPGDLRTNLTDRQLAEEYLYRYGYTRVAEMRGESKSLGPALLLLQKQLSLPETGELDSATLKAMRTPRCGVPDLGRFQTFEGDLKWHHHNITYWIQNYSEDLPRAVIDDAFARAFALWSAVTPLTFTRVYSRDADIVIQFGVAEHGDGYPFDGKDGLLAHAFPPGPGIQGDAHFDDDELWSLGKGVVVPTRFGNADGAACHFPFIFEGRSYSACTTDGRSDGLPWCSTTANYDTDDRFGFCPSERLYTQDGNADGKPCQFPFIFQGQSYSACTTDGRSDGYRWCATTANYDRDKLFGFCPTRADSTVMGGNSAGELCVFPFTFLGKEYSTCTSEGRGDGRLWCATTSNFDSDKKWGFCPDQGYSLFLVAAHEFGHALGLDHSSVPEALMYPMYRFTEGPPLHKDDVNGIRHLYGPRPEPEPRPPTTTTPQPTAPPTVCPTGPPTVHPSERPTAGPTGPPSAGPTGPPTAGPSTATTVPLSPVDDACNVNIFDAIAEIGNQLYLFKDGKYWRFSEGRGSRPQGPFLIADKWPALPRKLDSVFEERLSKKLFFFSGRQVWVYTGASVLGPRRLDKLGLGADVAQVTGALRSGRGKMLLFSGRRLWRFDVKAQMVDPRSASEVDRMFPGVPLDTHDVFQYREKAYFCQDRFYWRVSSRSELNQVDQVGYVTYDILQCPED

Row | SMILES | Activity [2] | inhibition (Stromelysin-2 [3]) | Ki (Matrilysin) | Ki [2] | Ki (Stromelysin-2 [4]) | further results
1 | O=C(NO)[C@H](CCCNS(=O)(=O)c1ccc(F)cc1)NS(=O)(=O)c1ccc(F)cc1 | inactive | 20% | – | – | – | inhibition [1]: 17%
2 | O=C(NO)C(CNS(=O)(=O)c1ccc(Cl)cc1)NS(=O)(=O)c1ccc(Cl)cc1 (configuration not stated) | – | – | 0.237 µM | 0.23 µM | – | –
3 | O=C(NO)[C@H](CCCNS(=O)(=O)c1ccc(C(F)(F)F)cc1)NS(=O)(=O)c1ccc(C(F)(F)F)cc1 | – | – | 7 µM | 329 µM | 337 µM | –
4 | O=C(NO)[C@H](CCCNS(=O)(=O)c1ccc(I)cc1)NS(=O)(=O)c1ccc(I)cc1 | – | – | 5 µM | 221 µM | – | Activity (Stromelysin-2 [4]): inactive
5 | O=C(NO)[C@H](CCCCNS(=O)(=O)c1ccc(I)cc1)NS(=O)(=O)c1ccc(I)cc1 | inactive | 30.9% | – | – | – | inhibition [1]: 46%
6 | O=C(NO)[C@H](CCCCNS(=O)(=O)c1ccc(Br)cc1)NS(=O)(=O)c1ccc(Br)cc1 | inactive | 34.5% | 2.2 µM | – | – | –
7 | CN(C)c1cccc2c(S(=O)(=O)NCC(NS(=O)(=O)c3cccc4c(N(C)C)cccc34)C(=O)NO)cccc12 (configuration not stated) | – | – | 4.8 µM | 150 µM | – | –
8 | O=C(NO)C(CNS(=O)(=O)c1c(F)c(F)c(F)c(F)c1F)NS(=O)(=O)c1c(F)c(F)c(F)c(F)c1F (configuration not stated) | – | – | 8.6 µM | 212 µM | – | Activity (Stromelysin-2 [4]): inactive
9 | COc1ccc(S(=O)(=O)NCCC[C@H](NS(=O)(=O)c2ccc(OC)cc2)C(=O)NO)cc1 | – | – | – | 4.2 µM | – | Activity [6]: inactive; Activity (Stromelysin-2 [4]): 16 µM
10 | O=C(NO)C(CNS(=O)(=O)c1cccc(C(F)(F)F)c1)NS(=O)(=O)c1cccc(C(F)(F)F)c1 (configuration not stated) | inactive | – | 0.602 µM | – | – | Activity (Stromelysin-2 [4]): inactive
11 | COc1ccc(S(=O)(=O)NCC(NS(=O)(=O)c2ccc(OC)cc2)C(=O)NO)cc1 (configuration not stated) | – | – | 0.605 µM | 0.039 µM | 0.335 µM | –
12 | O=C(NO)C(CNS(=O)(=O)c1ccccc1)NS(=O)(=O)c1ccccc1 (configuration not stated) | – | – | 2.8 µM | 0.227 µM | 0.356 µM | –
13 | COc1ccc(S(=O)(=O)NCC(NS(=O)(=O)c2ccc(OC)cc2OC)C(=O)NO)c(OC)c1 (configuration not stated) | – | – | 0.289 µM | 124 µM | 372 µM | –
14 | O=C(NO)[C@H](CCCNS(=O)(=O)c1ccccc1)NS(=O)(=O)c1ccccc1 | inactive | – | 3 µM | – | – | Activity (Stromelysin-2 [4]): inactive
15 | O=C(NO)C(CNS(=O)(=O)c1ccc(F)cc1)NS(=O)(=O)c1ccc(F)cc1 (configuration not stated) | – | – | 0.625 µM | 2.75 µM | 4.57 µM | –

Further lines, with some results ahead:

Row | Activity [2] | inhibition (Stromelysin-2 [3]) | Ki (Matrilysin) | Ki [2] | Ki (Stromelysin-2 [4]) | SMILES | further results
16 | inactive | – | 6 µM | – | – | O=C(NO)C(CNS(=O)(=O)c1ccccc1C(F)(F)F)NS(=O)(=O)c1ccccc1C(F)(F)F (configuration not stated) | Activity (Stromelysin-2 [4]): inactive
17 | – | 34.5% | – | – | – | O=C(NO)[C@H](CCCCNS(=O)(=O)c1ccccc1)NS(=O)(=O)c1ccccc1 | inhibition [1]: 44%; inhibition [5]: 7.5%
18 | inactive | 1.8% | – | – | – | O=C(NO)[C@H](CCCCNS(=O)(=O)c1ccc(C(F)(F)F)cc1)NS(=O)(=O)c1ccc(C(F)(F)F)cc1 | inhibition [1]: 24%
19 | inactive | 34.5% | – | – | – | O=C(NO)[C@H](CCCNS(=O)(=O)c1ccc(Cl)cc1)NS(=O)(=O)c1ccc(Cl)cc1 | inhibition [1]: 31%
20 | – | – | 6.6 µM | 1.7 µM | 22 µM | O=C(NO)C(CNS(=O)(=O)c1ccc([N+](=O)[O-])cc1)NS(=O)(=O)c1ccc([N+](=O)[O-])cc1 (configuration not stated) | –
21 | – | 16.4% | – | – | – | O=C(NO)[C@H](CCCNS(=O)(=O)c1ccc(Br)cc1)NS(=O)(=O)c1ccc(Br)cc1 | inhibition [1]: 32%; inhibition [5]: 9.3%
22 | – | – | 10 µM | 7.9 µM | 23 µM | O=C(NO)C(CNS(=O)(=O)c1ccc(C(F)(F)F)cc1)NS(=O)(=O)c1ccc(C(F)(F)F)cc1 (configuration not stated) | –
23 | inactive | 27.4% | 3.1 µM | – | – | O=C(NO)[C@H](CCCCNS(=O)(=O)c1ccc(F)cc1)NS(=O)(=O)c1ccc(F)cc1 | –
24 | – | – | 5.5 µM | 0.15 µM | – | O=C(NO)C(CNS(=O)(=O)c1ccc(Br)cc1)NS(=O)(=O)c1ccc(Br)cc1 (configuration not stated) | –
25 | – | – | 1.8 µM | 0.0026 µM | 1.6 µM | O=C(NO)C(CNS(=O)(=O)c1ccc(I)cc1)NS(=O)(=O)c1ccc(I)cc1 (configuration not stated) | –
